Consider one molecule from ChEMBL document CHEMBL5046238, “Synthesis, biological evaluation, and in silico studies of potential activators of apoptosis and carbonic anhydrase inhibitors on isatin-5-sulfonamide scaffold” (Eur J Med Chem, 2022).

Data set [1] has as its system MDA-MB-231. Nature of the data set: Antiproliferative activity against human MDA-MB-231 cells assessed as growth inhibition under hypoxia conditions measured after 72 hrs by MTT assay. Conditions: MDA-MB-231, 72 h.
Data set [2] deals with MCF7. Nature of the data set: Antiproliferative activity against human MCF7 cells assessed as growth inhibition under hypoxia conditions measured after 72 hrs by MTT assay. Conditions: MCF7, 72 h.
The test system of data set [3] is HCT-116. Nature of the data set: cells. Conditions: Homo sapiens, HCT-116, 72 h.
Description: Antiproliferative activity against human HCT-116 assessed as growth inhibition measured after 72 hrs by MTT assay
The target of a further data set is Carbonic anhydrase 9 (Homo sapiens, UniProt Q16790). Nature of the data set: Inhibition of human CA9 preincubated for 15 mins by phenol red dye based stopped flow CO2 hydration assay.
Data set [4] relates to MCF7. Nature of the data set: Induction of apoptosis in human MCF7 cells assessed as NFkappaB activity upto 5 uM measured after 48 hrs by immunoblotting analysis. It counts as functional, cell-based. Conditions: dose microM <=5, time 48.0 hrs. A general note: In western blotting, separated proteins are transferred to a membrane and probed.
The subject of data set [5] is T47D. Description: Antiproliferative activity against human T47D cells assessed as growth inhibition under normoxia conditions measured after 72 hrs by MTT assay. (Tetrazolium dyes change colour on reduction, which living cells bring about.)
Data set [6] relates to MDA-MB-231. Nature of the data set: Antiproliferative activity against human MDA-MB-231 cells assessed as growth inhibition under normoxia conditions measured after 72 hrs by MTT assay. As to conditions: MDA-MB-231, 72 h.
The test system of a further data set is K562. Nature of the data set: Antiproliferative activity against human K562 cells assessed as growth inhibition measured after 72 hrs by MTT assay. Conditions: K562, 72 h.
A short description of data set [7]: Cytotoxicity against human MCF-10A assessed as cell viability under hypoxia conditions measured after 72 hrs by MTT assay. It counts as toxicity, cell-based. As to conditions: MCF-10A cells.
Data set [8] in a line: Antiproliferative activity against human K562/4 cells assessed as growth inhibition measured after 72 hrs by MTT assay. Conditions: K562/4, 72 h.
The subject of data set [9] is MCF7. Nature of the data set: Induction of apoptosis in human MCF7 cells assessed as […] in BAD protein expression upto 5 uM measured after 48 hrs by immunoblotting analysis. It counts as functional, cell-based. As to conditions: dose microM <=5, time 48.0 hrs.
Data set [10] deals with T47D. Description: Antiproliferative activity against human T47D cells assessed as growth inhibition under hypoxia conditions measured after 72 hrs by MTT assay.
Data set [11] deals with MCF7. Nature of the data set: Antiproliferative activity against human MCF7 cells assessed as growth inhibition measured after 72 hrs by MTT assay. Conditions: MCF7, 72 h.
Data set [12] deals with MCF7. Description: Induction of apoptosis in human MCF7 cells assessed as decrease in ERalpha protein expression upto 5 uM measured after 48 hrs by immunoblotting analysis. It counts as functional, cell-based. Conditions: dose microM <=5, time 48.0 hrs.
For data set [13], the system named is HCT-116. Nature of the data set: Antiproliferative activity against human HCT-116p53KO subline assessed as growth inhibition measured after 72 hrs by MTT assay. As to conditions: HCT-116, 72 h.
In data set [14] the test system is MCF7. Nature of the data set: Induction of apoptosis in human MCF7 cells assessed as decrease in Bcl2 expression upto 5 uM measured after 48 hrs by immunoblotting analysis. It counts as functional, cell-based. Conditions: dose microM <=5, time 48.0 hrs.
A further data set concerns the target Carbonic anhydrase 12 (Homo sapiens, UniProt O43570). Description: Inhibition of human CA12 preincubated for 15 mins by phenol red based stopped flow CO2 hydration assay.
In data set [15] the test system is MCF7. Nature of the data set: Induction of apoptosis in human MCF7 cells assessed as PARP cleavage upto 5 uM measured after 48 hrs by immunoblotting analysis. It counts as functional, cell-based. As to conditions: dose microM <=5, time 48.0 hrs.
Data set [16] in a line: Cytotoxicity against human MCF-10A assessed as cell viability under normoxia conditions measured after 72 hrs by MTT assay. It counts as toxicity, cell-based. As to conditions: MCF-10A cells.

Structures are written as SMILES. The source made the active and inactive calls. No cut-off for these calls is given here.

Chain of Carbonic anhydrase 12 (O43570 whole entry): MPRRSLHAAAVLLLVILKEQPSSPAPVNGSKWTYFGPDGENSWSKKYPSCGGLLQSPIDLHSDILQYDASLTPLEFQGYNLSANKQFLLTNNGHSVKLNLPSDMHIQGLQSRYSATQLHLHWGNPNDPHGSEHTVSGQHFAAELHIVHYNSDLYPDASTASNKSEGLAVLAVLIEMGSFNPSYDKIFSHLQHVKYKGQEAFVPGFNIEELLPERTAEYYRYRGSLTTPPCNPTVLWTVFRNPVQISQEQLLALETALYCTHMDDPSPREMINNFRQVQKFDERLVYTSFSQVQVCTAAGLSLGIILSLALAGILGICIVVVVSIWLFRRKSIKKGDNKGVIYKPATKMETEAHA

Regarding `NS(=O)(=O)c1ccc2c(c1)C(=O)C(=O)N2Cc1ccc(SC(F)(F)F)cc1`, the IC50 was 10.8 µM with MDA-MB-231 [1]; 3.2 µM in the data set with MCF7 [2]; 14.5 µM with HCT-116 [3]; 6.3 µM in the data set on T47D [5]; 6.9 µM in the data set on MDA-MB-231 [6]; 4.5 µM in the data set with K562. Moreover, the IC50 in data set [8] was found to be 6.5 µM; in the data set with T47D [10], 20.3 µM; in the data set with MCF7 [11] it was 2.6 µM; in the data set with HCT-116 [13], 15 µM. For the same molecule, the Ki is 1.77 µM at Carbonic anhydrase 9 and over 10 µM at Carbonic anhydrase 12. The outcome in the data set with MCF7 [4], with MCF7 [14] and in the data set with MCF7 [15] was Active. Also, the IC50 at 72 h was 8.6 µM in data set [7] and 6.4 µM in data set [16]. Moreover, the outcome in the data set on MCF7 [9] was inactive. Further, the Activity result in the data set with MCF7 [12] is “Dose-Dependent Effect”.

In general, IC50 refers to the concentration that inhibits the measured activity by half. What is called Ki is the equilibrium dissociation constant of an inhibitor or competing ligand from its target. Read a low Ki as higher affinity.
